# Experimental data: ChEMBL document CHEMBL3885881, “DrugMatrix”
# Species on record: Rattus norvegicus
# Assay: DrugMatrix - Regimen: Daily Repeat
# Assay type: toxicity, organism-based, Sprague-Dawley
# Design: regimen Daily Repeat, gender Male, age 6-8 weeks
# Conditions: in vivo, po, route oral GAVAGE, […]; for ABSOLUTE BASOPHIL / ABSOLUTE EOSINOPHIL / ABSOLUTE LYMPHOCYTE / ABSOLUTE MONOCYTE / ABSOLUTE SEGMENTED NEUTROPHIL / BASOPHIL / EOSINOPHIL / ERYTHROCYTE COUNT / HEMATOCRIT / HEMOGLOBIN / LEUKOCYTE COUNT / LYMPHOCYTE / MEAN CORPUSCULAR HEMOGLOBIN / MEAN CORPUSCULAR HEMOGLOBIN CONCENTRATION / MEAN CORPUSCULAR VOLUME / MONOCYTE / NEUTROPHIL / NUCLEATED RED BLOOD CELLS / PLATELET COUNT: tissue Blood; for ALANINE AMINOTRANSFERASE / ALBUMIN / ALKALINE PHOSPHATASE / ASPARTATE AMINOTRANSFERASE / BLOOD UREA NITROGEN / CARBON DIOXIDE / CHLORIDE / CHOLESTEROL / CREATINE PHOSPHOKINASE / CREATININE / GLUCOSE / LACTATE DEHYDROGENASE / LIPASE / POTASSIUM / SODIUM / TOTAL BILIRUBIN / TOTAL PROTEIN / URIC ACID: tissue Plasma
# [1] = 300 mg/kg, 72 h, dose level M1, time 3 day
# [2] = 300 mg/kg, 120 h, dose level M1, time 5 day
# [3] = 1500 mg/kg, 72 h, dose level High, time 3 day
# [4] = 1500 mg/kg, 120 h, dose level High, time 5 day
structure (smiles),measurement,setting,value
CCc1ccc(CCOc2ccc(CC3SC(=O)NC3=O)cc2)nc1 (stereo not drawn) [PIOGLITAZONE],ABSOLUTE BASOPHIL,[1],0 CELLS/uL
same,ABSOLUTE EOSINOPHIL,[1],0 CELLS/uL
same,ABSOLUTE LYMPHOCYTE,[1],15172.67 CELLS/uL
same,ABSOLUTE MONOCYTE,[1],43 CELLS/uL
same,ABSOLUTE SEGMENTED NEUTROPHIL,[1],1184.33 CELLS/uL
same,BASOPHIL,[1],0%
same,EOSINOPHIL,[1],0%
same,ERYTHROCYTE COUNT,[1],4.93 x10E6/uL
same,HEMATOCRIT,[1],32.73%
same,HEMOGLOBIN,[1],13 G/DL
same,LEUKOCYTE COUNT,[1],16.4 x10E3/uL
same,LYMPHOCYTE,[1],92.33%
same,MEAN CORPUSCULAR HEMOGLOBIN,[1],26.4 pg
same,MEAN CORPUSCULAR HEMOGLOBIN CONCENTRATION,[1],39.73 G/DL
same,MEAN CORPUSCULAR VOLUME,[1],66.4 fL
same,MONOCYTE,[1],0.33%
same,NEUTROPHIL,[1],7.33%
same,NUCLEATED RED BLOOD CELLS,[1],0.67 /100WBC
same,PLATELET COUNT,[1],1282 x10E3/uL
same,ALANINE AMINOTRANSFERASE,[1],81.33 u/L
same,ALBUMIN,[1],4.1 G/DL
same,ALKALINE PHOSPHATASE,[1],504.67 u/L
same,ASPARTATE AMINOTRANSFERASE,[1],92 u/L
same,BLOOD UREA NITROGEN,[1],13.67 mg/dL
same,CARBON DIOXIDE,[1],34 mmol/L
same,CHLORIDE,[1],103.33 MEQ/L
same,CHOLESTEROL,[1],58.33 mg/dL
same,CREATINE PHOSPHOKINASE,[1],248.33 u/L
same,CREATININE,[1],0.22 mg/dL
same,GLUCOSE,[1],137 mg/dL
same,LACTATE DEHYDROGENASE,[1],98 u/L
same,LIPASE,[1],10.67 u/L
same,POTASSIUM,[1],6.5 MEQ/L
same,SODIUM,[1],143.9 MEQ/L
same,TOTAL BILIRUBIN,[1],0.1 mg/dL
same,TOTAL PROTEIN,[1],5.47 G/DL
same,URIC ACID,[1],1.27 mg/dL
same,ABSOLUTE BASOPHIL,[2],0 CELLS/uL
same,ABSOLUTE EOSINOPHIL,[2],0 CELLS/uL
same,ABSOLUTE LYMPHOCYTE,[2],12765 CELLS/uL
same,ABSOLUTE MONOCYTE,[2],138.67 CELLS/uL
same,ABSOLUTE SEGMENTED NEUTROPHIL,[2],829.67 CELLS/uL
same,BASOPHIL,[2],0%
same,EOSINOPHIL,[2],0%
same,ERYTHROCYTE COUNT,[2],4.76 x10E6/uL
same,HEMATOCRIT,[2],31.27%
same,HEMOGLOBIN,[2],12.9 G/DL
same,LEUKOCYTE COUNT,[2],13.73 x10E3/uL
same,LYMPHOCYTE,[2],93%
same,MEAN CORPUSCULAR HEMOGLOBIN,[2],27.17 pg
same,MEAN CORPUSCULAR HEMOGLOBIN CONCENTRATION,[2],41.37 G/DL
same,MEAN CORPUSCULAR VOLUME,[2],65.73 fL
same,MONOCYTE,[2],1%
same,NEUTROPHIL,[2],6%
same,NUCLEATED RED BLOOD CELLS,[2],0.67 /100WBC
same,PLATELET COUNT,[2],1095.33 x10E3/uL
same,ALANINE AMINOTRANSFERASE,[2],71.67 u/L
same,ALBUMIN,[2],4.07 G/DL
same,ALKALINE PHOSPHATASE,[2],406.67 u/L
same,ASPARTATE AMINOTRANSFERASE,[2],102.33 u/L
same,BLOOD UREA NITROGEN,[2],14.33 mg/dL
same,CARBON DIOXIDE,[2],33.33 mmol/L
same,CHLORIDE,[2],101.33 MEQ/L
same,CHOLESTEROL,[2],56.67 mg/dL
same,CREATINE PHOSPHOKINASE,[2],223.67 u/L
same,CREATININE,[2],0.16 mg/dL
same,GLUCOSE,[2],150.33 mg/dL
same,LACTATE DEHYDROGENASE,[2],224.33 u/L
same,LIPASE,[2],10.33 u/L
same,POTASSIUM,[2],5.99 MEQ/L
same,SODIUM,[2],143.9 MEQ/L
same,TOTAL BILIRUBIN,[2],0.1 mg/dL
same,TOTAL PROTEIN,[2],5.73 G/DL
same,URIC ACID,[2],1.43 mg/dL
same,ABSOLUTE BASOPHIL,[3],0 CELLS/uL
same,ABSOLUTE EOSINOPHIL,[3],0 CELLS/uL
same,ABSOLUTE LYMPHOCYTE,[3],8411 CELLS/uL
same,ABSOLUTE MONOCYTE,[3],92.33 CELLS/uL
same,ABSOLUTE SEGMENTED NEUTROPHIL,[3],1396.67 CELLS/uL
same,BASOPHIL,[3],0%
same,EOSINOPHIL,[3],0%
same,ERYTHROCYTE COUNT,[3],4.68 x10E6/uL
same,HEMATOCRIT,[3],29.23%
same,HEMOGLOBIN,[3],11.2 G/DL
same,LEUKOCYTE COUNT,[3],9.9 x10E3/uL
same,LYMPHOCYTE,[3],84.33%
same,MEAN CORPUSCULAR HEMOGLOBIN,[3],23.93 pg
same,MEAN CORPUSCULAR HEMOGLOBIN CONCENTRATION,[3],38.27 G/DL
same,MEAN CORPUSCULAR VOLUME,[3],62.47 fL
same,MONOCYTE,[3],1%
same,NEUTROPHIL,[3],14.67%
same,NUCLEATED RED BLOOD CELLS,[3],0.33 /100WBC
same,PLATELET COUNT,[3],1023.33 x10E3/uL
same,ALANINE AMINOTRANSFERASE,[3],85.67 u/L
same,ALBUMIN,[3],3.97 G/DL
same,ALKALINE PHOSPHATASE,[3],537.33 u/L
same,ASPARTATE AMINOTRANSFERASE,[3],97.67 u/L
same,BLOOD UREA NITROGEN,[3],12.33 mg/dL
same,CARBON DIOXIDE,[3],34.67 mmol/L
same,CHLORIDE,[3],101 MEQ/L
same,CHOLESTEROL,[3],67 mg/dL
same,CREATINE PHOSPHOKINASE,[3],311.67 u/L
same,CREATININE,[3],0.36 mg/dL
same,GLUCOSE,[3],131 mg/dL
same,LACTATE DEHYDROGENASE,[3],114.33 u/L
same,LIPASE,[3],9.67 u/L
same,POTASSIUM,[3],5.48 MEQ/L
same,SODIUM,[3],145 MEQ/L
same,TOTAL BILIRUBIN,[3],0.1 mg/dL
same,TOTAL PROTEIN,[3],5.57 G/DL
same,URIC ACID,[3],0.67 mg/dL
same,ABSOLUTE BASOPHIL,[4],0 CELLS/uL
same,ABSOLUTE EOSINOPHIL,[4],36.67 CELLS/uL
same,ABSOLUTE LYMPHOCYTE,[4],8937 CELLS/uL
same,ABSOLUTE MONOCYTE,[4],131.33 CELLS/uL
same,ABSOLUTE SEGMENTED NEUTROPHIL,[4],1128.33 CELLS/uL
same,BASOPHIL,[4],0%
same,EOSINOPHIL,[4],0.33%
same,ERYTHROCYTE COUNT,[4],4.76 x10E6/uL
same,HEMATOCRIT,[4],30.03%
same,HEMOGLOBIN,[4],11.5 G/DL
same,LEUKOCYTE COUNT,[4],10.23 x10E3/uL
same,LYMPHOCYTE,[4],87.33%
same,MEAN CORPUSCULAR HEMOGLOBIN,[4],24.2 pg
same,MEAN CORPUSCULAR HEMOGLOBIN CONCENTRATION,[4],38.3 G/DL
same,MEAN CORPUSCULAR VOLUME,[4],63.17 fL
same,MONOCYTE,[4],1.33%
same,NEUTROPHIL,[4],11%
same,NUCLEATED RED BLOOD CELLS,[4],0 /100WBC
same,PLATELET COUNT,[4],962 x10E3/uL
same,ALANINE AMINOTRANSFERASE,[4],56.33 u/L
same,ALBUMIN,[4],3.93 G/DL
same,ALKALINE PHOSPHATASE,[4],338.67 u/L
same,ASPARTATE AMINOTRANSFERASE,[4],80 u/L
same,BLOOD UREA NITROGEN,[4],13.67 mg/dL
same,CARBON DIOXIDE,[4],33.67 mmol/L
same,CHLORIDE,[4],101 MEQ/L
same,CHOLESTEROL,[4],62.67 mg/dL
same,CREATINE PHOSPHOKINASE,[4],366 u/L
same,CREATININE,[4],0.36 mg/dL
same,GLUCOSE,[4],140.67 mg/dL
same,LACTATE DEHYDROGENASE,[4],107.33 u/L
same,LIPASE,[4],8.67 u/L
same,POTASSIUM,[4],5.6 MEQ/L
same,SODIUM,[4],144.53 MEQ/L
same,TOTAL BILIRUBIN,[4],0.17 mg/dL
same,TOTAL PROTEIN,[4],5.47 G/DL
same,URIC ACID,[4],0.63 mg/dL
